Measured values from PubChem BioAssay (NCI).
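Test compounds were applied to cells in 96-well plates for 48 hours at 5 doses. GI50 marks 50% less growth. TGI: total growth inhibition.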

Legend:
Test in all cases: DTP human tumour cell line panel, 48 h
786-0 renal = system: 786-0 renal
A498 renal = system: A498 renal
ACHN renal = system: ACHN renal
BT-549 breast = system: BT-549 breast
CAKI-1 renal = system: CAKI-1 renal
CCRF-CEM leukemia = system: CCRF-CEM leukemia
COLO 205 colon = system: COLO 205 colon
DU-145 prostate = system: DU-145 prostate
HCC-2998 colon = system: HCC-2998 colon
HCT-116 colon = system: HCT-116 colon
HCT-15 colon = system: HCT-15 colon
HL-60(TB) leukemia = system: HL-60(TB) leukemia
HOP-62 NSCLC = system: HOP-62 NSCLC
HOP-92 NSCLC = system: HOP-92 NSCLC
HS 578T breast = system: HS 578T breast
HT29 colon = system: HT29 colon
IGROV1 ovarian = system: IGROV1 ovarian
K-562 leukemia = system: K-562 leukemia
KM12 colon = system: KM12 colon
LOX IMVI melanoma = system: LOX IMVI melanoma
M14 melanoma = system: M14 melanoma
MALME-3M melanoma = system: MALME-3M melanoma
MCF7 breast = system: MCF7 breast
MDA-MB-231 breast = system: MDA-MB-231 breast
MDA-MB-435 = system: MDA-MB-435
MOLT-4 leukemia = system: MOLT-4 leukemia
NCI-H226 lung = system: NCI-H226 lung
NCI-H23 lung = system: NCI-H23 lung
NCI-H460 lung = system: NCI-H460 lung
NCI-H522 lung = system: NCI-H522 lung
NCI/ADR-RES ovarian = system: NCI/ADR-RES ovarian
OVCAR-3 ovarian = system: OVCAR-3 ovarian
OVCAR-4 ovarian = system: OVCAR-4 ovarian
OVCAR-5 ovarian = system: OVCAR-5 ovarian
OVCAR-8 ovarian = system: OVCAR-8 ovarian
PC-3 prostate = system: PC-3 prostate
RPMI-8226 leukemia = system: RPMI-8226 leukemia
RXF 393 renal = system: RXF 393 renal
SF-268 CNS = system: SF-268 CNS
SF-539 CNS = system: SF-539 CNS
SK-MEL-2 melanoma = system: SK-MEL-2 melanoma
SK-MEL-28 melanoma = system: SK-MEL-28 melanoma
SK-MEL-5 melanoma = system: SK-MEL-5 melanoma
SK-OV-3 ovarian = system: SK-OV-3 ovarian
SN12C renal = system: SN12C renal
SNB-19 CNS = system: SNB-19 CNS
SNB-75 CNS = system: SNB-75 CNS
SR leukemia = system: SR leukemia
SW-620 colon = system: SW-620 colon
T-47D breast = system: T-47D breast
TK-10 renal = system: TK-10 renal
U251 CNS = system: U251 CNS
UACC-257 melanoma = system: UACC-257 melanoma
UACC-62 melanoma = system: UACC-62 melanoma
UO-31 renal = system: UO-31 renal
A549 NSCLC = system: A549 NSCLC
EKVX NSCLC = system: EKVX NSCLC
SF-295 CNS = system: SF-295 CNS

SMILES: CCC(=O)N1C/C(=C/c2ccc(OC)cc2)C(=O)/C(=C/c2ccc(OC)cc2)C1
- GI50 (786-0 renal): 1.87 µM
- TGI (786-0 renal): 3.72 µM
- GI50 (A498 renal): 1.92 µM
- TGI (A498 renal): 3.51 µM
- GI50 (ACHN renal): 1.8 µM
- TGI (ACHN renal): 3.43 µM
- GI50 (BT-549 breast): 1.88 µM
- TGI (BT-549 breast): 3.5 µM
- GI50 (CAKI-1 renal): 2.74 µM
- TGI (CAKI-1 renal): 9.73 µM
- GI50 (CCRF-CEM leukemia): 1.75 µM
- TGI (CCRF-CEM leukemia): 8.31 µM
- GI50 (COLO 205 colon): 1.99 µM
- TGI (COLO 205 colon): 3.65 µM
- GI50 (DU-145 prostate): 2.91 µM
- TGI (DU-145 prostate): 10.6 µM
- GI50 (HCC-2998 colon): 1.93 µM
- TGI (HCC-2998 colon): 3.42 µM
- GI50 (HCT-116 colon): 0.263 µM
- TGI (HCT-116 colon): 0.646 µM
- GI50 (HCT-15 colon): 2.03 µM
- TGI (HCT-15 colon): 5.31 µM
- GI50 (HL-60(TB) leukemia): 2.98 µM
- TGI (HL-60(TB) leukemia): 53.1 µM
- GI50 (HOP-62 NSCLC): 2.79 µM
- TGI (HOP-62 NSCLC): 6.45 µM
- GI50 (HOP-92 NSCLC): 2.11 µM
- TGI (HOP-92 NSCLC): 7.77 µM
- GI50 (HS 578T breast): 2.35 µM
- TGI (HS 578T breast): 7.47 µM
- GI50 (HT29 colon): 1.18 µM
- TGI (HT29 colon): 4.13 µM
- GI50 (IGROV1 ovarian): 2.21 µM
- TGI (IGROV1 ovarian): 4.93 µM
- GI50 (K-562 leukemia): 1.19 µM
- TGI (K-562 leukemia): > 100 µM
- GI50 (KM12 colon): 1.38 µM
- TGI (KM12 colon): 2.85 µM
- GI50 (LOX IMVI melanoma): 0.95 µM
- TGI (LOX IMVI melanoma): 2.28 µM
- GI50 (M14 melanoma): 1.92 µM
- TGI (M14 melanoma): 3.96 µM
- GI50 (MALME-3M melanoma): 2.47 µM
- TGI (MALME-3M melanoma): 6.26 µM
- GI50 (MCF7 breast): 0.498 µM
- TGI (MCF7 breast): 12.2 µM
- GI50 (MDA-MB-231 breast): 1.98 µM
- TGI (MDA-MB-231 breast): 4.28 µM
- GI50 (MDA-MB-435): 1.23 µM
- TGI (MDA-MB-435): 4.42 µM
- GI50 (MOLT-4 leukemia): 3.31 µM
- TGI (MOLT-4 leukemia): > 100 µM
- GI50 (NCI-H226 lung): 22.3 µM
- TGI (NCI-H226 lung): > 100 µM
- GI50 (NCI-H23 lung): 2.26 µM
- TGI (NCI-H23 lung): 5.39 µM
- GI50 (NCI-H460 lung): 2.05 µM
- TGI (NCI-H460 lung): 4.48 µM
- GI50 (NCI-H522 lung): 1.85 µM
- TGI (NCI-H522 lung): 3.86 µM
- GI50 (NCI/ADR-RES ovarian): 3.54 µM
- TGI (NCI/ADR-RES ovarian): > 100 µM
- GI50 (OVCAR-3 ovarian): 1.82 µM
- TGI (OVCAR-3 ovarian): 3.73 µM
- GI50 (OVCAR-4 ovarian): 3.37 µM
- TGI (OVCAR-4 ovarian): > 100 µM
- GI50 (OVCAR-5 ovarian): 1.86 µM
- TGI (OVCAR-5 ovarian): 3.75 µM
- GI50 (OVCAR-8 ovarian): 2.86 µM
- TGI (OVCAR-8 ovarian): > 100 µM
- GI50 (PC-3 prostate): 2.17 µM
- TGI (PC-3 prostate): 7.94 µM
- GI50 (RPMI-8226 leukemia): 0.231 µM
- TGI (RPMI-8226 leukemia): 0.748 µM
- GI50 (RXF 393 renal): 1.72 µM
- TGI (RXF 393 renal): 3.17 µM
- GI50 (SF-268 CNS): 2.31 µM
- TGI (SF-268 CNS): 5.71 µM
- GI50 (SF-539 CNS): 1.62 µM
- TGI (SF-539 CNS): 3.1 µM
- GI50 (SK-MEL-2 melanoma): 2.53 µM
- TGI (SK-MEL-2 melanoma): 5.38 µM
- GI50 (SK-MEL-28 melanoma): 1.85 µM
- TGI (SK-MEL-28 melanoma): 3.74 µM
- GI50 (SK-MEL-5 melanoma): 1.62 µM
- TGI (SK-MEL-5 melanoma): 3.04 µM
- GI50 (SK-OV-3 ovarian): 4.61 µM
- TGI (SK-OV-3 ovarian): 27.9 µM
- GI50 (SN12C renal): 1.78 µM
- TGI (SN12C renal): 3.51 µM
- GI50 (SNB-19 CNS): 2.93 µM
- TGI (SNB-19 CNS): 19.3 µM
- GI50 (SNB-75 CNS): 5.91 µM
- TGI (SNB-75 CNS): > 100 µM
- GI50 (SR leukemia): 0.382 µM
- TGI (SR leukemia): > 100 µM
- GI50 (SW-620 colon): 1.66 µM
- TGI (SW-620 colon): 3.64 µM
- GI50 (T-47D breast): 5.1 µM
- TGI (T-47D breast): > 100 µM
- GI50 (TK-10 renal): 2.72 µM
- TGI (TK-10 renal): 6.54 µM
- GI50 (U251 CNS): 1.78 µM
- TGI (U251 CNS): 4.08 µM
- GI50 (UACC-257 melanoma): 2.21 µM
- TGI (UACC-257 melanoma): 5.88 µM
- GI50 (UACC-62 melanoma): 1.6 µM
- TGI (UACC-62 melanoma): 3.01 µM
- GI50 (UO-31 renal): 1.34 µM
- TGI (UO-31 renal): 2.71 µM

SMILES: CN(C)Cc1cc(C(=O)/C=C/c2ccc(/C=C/C(=O)c3cc(CN(C)C)c(O)c(CN(C)C)c3)cc2)cc(CN(C)C)c1O
- TGI (786-0 renal): 58.1 µM
- TGI (A498 renal): > 100 µM
- TGI (A549 NSCLC): > 100 µM
- TGI (ACHN renal): > 100 µM
- TGI (BT-549 breast): 60.2 µM
- TGI (CAKI-1 renal): > 100 µM
- TGI (CCRF-CEM leukemia): > 100 µM
- TGI (COLO 205 colon): 28.2 µM
- TGI (DU-145 prostate): > 100 µM
- TGI (EKVX NSCLC): > 100 µM
- TGI (HCC-2998 colon): 33.4 µM
- TGI (HCT-116 colon): 34 µM
- TGI (HCT-15 colon): > 100 µM
- TGI (HL-60(TB) leukemia): 98 µM
- TGI (HOP-62 NSCLC): > 100 µM
- TGI (HOP-92 NSCLC): 56.4 µM
- TGI (HS 578T breast): > 100 µM
- TGI (HT29 colon): 37.7 µM
- TGI (IGROV1 ovarian): > 100 µM
- TGI (K-562 leukemia): > 100 µM
- TGI (KM12 colon): 56.3 µM
- TGI (LOX IMVI melanoma): 26.5 µM
- TGI (M14 melanoma): 46.8 µM
- TGI (MALME-3M melanoma): > 100 µM
- TGI (MCF7 breast): > 100 µM
- TGI (MDA-MB-231 breast): 41.1 µM
- TGI (MDA-MB-435): 79.7 µM
- TGI (MOLT-4 leukemia): 68.6 µM
- TGI (NCI-H23 lung): 55.7 µM
- TGI (NCI-H522 lung): 40.1 µM
- TGI (NCI/ADR-RES ovarian): > 100 µM
- TGI (OVCAR-3 ovarian): > 100 µM
- TGI (OVCAR-4 ovarian): > 100 µM
- TGI (OVCAR-5 ovarian): 59.8 µM
- TGI (OVCAR-8 ovarian): > 100 µM
- TGI (PC-3 prostate): 49.6 µM
- TGI (RPMI-8226 leukemia): 65.5 µM
- TGI (RXF 393 renal): > 100 µM
- TGI (SF-268 CNS): > 100 µM
- TGI (SF-295 CNS): > 100 µM
- TGI (SF-539 CNS): 78.8 µM
- TGI (SK-MEL-2 melanoma): > 100 µM
- TGI (SK-MEL-28 melanoma): > 100 µM
- TGI (SK-MEL-5 melanoma): > 100 µM
- TGI (SN12C renal): 76 µM
- TGI (SNB-19 CNS): > 100 µM
- TGI (SNB-75 CNS): > 100 µM
- TGI (SR leukemia): > 100 µM
- TGI (SW-620 colon): 54.7 µM
- TGI (T-47D breast): > 100 µM
- TGI (TK-10 renal): > 100 µM
- TGI (U251 CNS): 47 µM
- TGI (UACC-257 melanoma): > 100 µM
- TGI (UACC-62 melanoma): 94.3 µM
- TGI (UO-31 renal): > 100 µM
